For one compound, EC50 results are on record in patent US20100016288A1 (priority 2008, published 2010).

The test has as its target T1, alpha7 nicotinic acetylcholine receptor (Rattus norvegicus, UniProt Q05941).
T1 construct: expressed in transfected cells
The format is cell-based. Conditions: agonist concentration-response 0.001 to 30 microM; rat alpha7 nAChR in GH4C1 cells; assay validation.

T1 sequence (Q05941 23-502): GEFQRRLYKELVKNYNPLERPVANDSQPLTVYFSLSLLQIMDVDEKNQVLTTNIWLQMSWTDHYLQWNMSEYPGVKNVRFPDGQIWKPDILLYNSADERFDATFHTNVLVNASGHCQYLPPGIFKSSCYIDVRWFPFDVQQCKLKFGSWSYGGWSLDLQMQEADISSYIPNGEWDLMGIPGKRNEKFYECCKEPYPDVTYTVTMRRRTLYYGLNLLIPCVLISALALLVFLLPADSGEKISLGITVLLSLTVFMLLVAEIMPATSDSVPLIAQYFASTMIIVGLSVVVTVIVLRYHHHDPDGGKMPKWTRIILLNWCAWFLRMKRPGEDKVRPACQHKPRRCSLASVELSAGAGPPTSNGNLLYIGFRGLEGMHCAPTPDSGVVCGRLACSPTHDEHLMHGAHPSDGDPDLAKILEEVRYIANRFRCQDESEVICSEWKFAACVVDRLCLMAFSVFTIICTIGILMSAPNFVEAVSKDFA
Excerpt: Rat GH4C1 cells were then transfected with the rat receptor, cloned and analyzed for functional alpha7 nicotinic receptor expression employing a FLIPR assay to measure changes in intracellular calcium concentrations. […] Three cell lines were then expanded and one characterised pharmacologically (see Table 2 below) prior to its subsequent use for compound screening.
The FLIPR system allows the measurements of real time Ca^2+-concentration changes in living cells using a Ca^2+ sensitive fluorescence dye (such as Fluo4). This instrument enables the screening for agonists and antagonists for alpha 7 nAChR channels stably expressed in GH4C1 cells.
GH4C1 cells stably transfected with rat-alphα7-nAChR (see above) were used. These cells are poorly adherent and therefore pretreatment of flasks and plates with poly-D-lysine was carried out. Cells are grown in 150 cm^2 T-flasks, filled with 30 ml of medium at 37° C. and 5% CO2.
EC50 and IC50 values were calculated using the IDBS XLfit4.1 software package employing a sigmoidal concentration-response (variable slope) equation:
The compounds were tested using the functional FLIPR primary screening assay employing the stable recombinant GH4C1 cell line expressing the alpha7 nAChR. Hits identified were validated further by generation of concentration-response curves.

Regarding `C[N+]1(C)CCN(c2ccccc2)CC1` [DMPP], the EC50 was found to be 0.98 ± 0.47 µM.

Usually EC50 stands for the concentration giving half of the maximal effect. The low end stands for higher potency in that assay, the high end for lower potency in that assay.
